From PMC7486383, “Protrudin and PDZD8 contribute to neuronal integrity by promoting lipid extraction required for endosome maturation” (Nature Communications, 2020)
Counter-ions that a name gives are not always drawn.

How the values were obtained:
[1] = target: T1, PDZD8(SMP-PDZ) (Mus musculus, UniProt B9EJ80); assay: liposome-FRET lipid extraction assay; format: binding; details: labelled compound; donor liposomes PC/PE/rhodamine-PE; 25 °C
T1 sequence (B9EJ80 87-448 limits assumed): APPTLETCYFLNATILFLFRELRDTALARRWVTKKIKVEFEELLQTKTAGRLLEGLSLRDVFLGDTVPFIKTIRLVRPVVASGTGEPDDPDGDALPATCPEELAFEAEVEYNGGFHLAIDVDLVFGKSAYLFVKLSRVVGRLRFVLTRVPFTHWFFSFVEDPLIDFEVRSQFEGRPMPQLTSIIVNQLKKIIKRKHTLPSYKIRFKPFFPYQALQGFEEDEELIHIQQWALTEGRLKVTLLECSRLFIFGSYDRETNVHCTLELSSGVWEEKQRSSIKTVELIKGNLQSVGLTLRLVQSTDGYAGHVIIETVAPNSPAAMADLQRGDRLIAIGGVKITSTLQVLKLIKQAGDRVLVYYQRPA

[2] = target: T2, GST-PDZD8(ΔTM) (Mus musculus, UniProt B9EJ80); assay: liposome-FRET lipid extraction assay; format: binding; details: labelled compound; donor liposomes PC/PE/rhodamine-PE; 25 °C
T2 sequence (B9EJ80 25-1147 limits assumed): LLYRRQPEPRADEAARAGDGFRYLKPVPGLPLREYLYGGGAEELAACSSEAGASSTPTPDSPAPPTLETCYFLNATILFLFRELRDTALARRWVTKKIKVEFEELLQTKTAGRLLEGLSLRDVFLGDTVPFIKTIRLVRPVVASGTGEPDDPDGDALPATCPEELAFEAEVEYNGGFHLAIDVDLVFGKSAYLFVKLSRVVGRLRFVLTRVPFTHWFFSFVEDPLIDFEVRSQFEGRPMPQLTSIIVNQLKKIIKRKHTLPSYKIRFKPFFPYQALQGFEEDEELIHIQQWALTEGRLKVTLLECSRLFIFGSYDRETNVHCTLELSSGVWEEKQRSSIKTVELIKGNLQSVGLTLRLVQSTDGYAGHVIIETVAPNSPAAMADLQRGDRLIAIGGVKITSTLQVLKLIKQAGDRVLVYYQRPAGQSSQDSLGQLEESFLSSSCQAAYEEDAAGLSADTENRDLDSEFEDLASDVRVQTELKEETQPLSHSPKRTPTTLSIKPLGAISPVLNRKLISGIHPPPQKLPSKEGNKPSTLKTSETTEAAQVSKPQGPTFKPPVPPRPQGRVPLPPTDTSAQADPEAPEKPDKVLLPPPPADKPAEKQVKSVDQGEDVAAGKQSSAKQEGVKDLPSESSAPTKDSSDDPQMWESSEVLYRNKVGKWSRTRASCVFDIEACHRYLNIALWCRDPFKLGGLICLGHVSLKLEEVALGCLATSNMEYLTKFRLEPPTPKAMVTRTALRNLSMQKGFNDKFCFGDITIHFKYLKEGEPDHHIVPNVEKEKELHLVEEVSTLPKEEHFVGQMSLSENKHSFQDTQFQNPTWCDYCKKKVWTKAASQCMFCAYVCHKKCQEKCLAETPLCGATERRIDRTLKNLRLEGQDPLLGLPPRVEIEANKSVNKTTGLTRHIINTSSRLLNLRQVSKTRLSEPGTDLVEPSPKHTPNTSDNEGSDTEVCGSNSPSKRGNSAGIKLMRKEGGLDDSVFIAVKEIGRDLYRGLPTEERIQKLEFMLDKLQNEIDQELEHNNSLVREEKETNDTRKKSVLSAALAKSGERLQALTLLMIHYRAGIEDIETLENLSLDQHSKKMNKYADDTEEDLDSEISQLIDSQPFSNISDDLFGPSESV

| SMILES | initial velocity of lipid extraction [1] | initial velocity of lipid extraction [2] |
| --- | --- | --- |
| CCCCCCCCCCCCCCCC(=O)OC[C@H](COP(=O)(O)OC[C@H](N)C(=O)O)OC(=O)CCCCCCCCCCCNc1ccc([N+](=O)[O-])c2nonc12 [NBD-PS, 1-palmitoyl-2-{12-[(7-nitro-2-1,3-benzoxadiazol-4-yl)amino]dodecanoyl}-sn-glycero-3-phosphoserine (ammonium salt)] | The activity of PDZD8(SMP-PDZ) was also about half that of PDZD8(ΔTM) | with the initial velocity of lipid extraction being greatest for PS |
| CCCCCCCCCCCCC/C=C/[C@@H](O)[C@H](CO)NC(=O)CCCCCNc1ccc([N+](=O)[O-])c2nonc12 [C6-NBD-ceramide, N-{6-[(7-nitro-2-1,3-benzoxadiazol-4-yl)amino]hexanoyl}-D-erythro-sphingosine] |  | PDZD8(ΔTM) also showed high extraction activity for ceramide |
